Experiment: solid-form stability of Compound A (humidity, temperature, air)
Assay type: physicochemical

Row | Compound | stability to air, moisture and elevated temperature (isolated as salt form (e.g., HCl salt) or monohydrate form) | relative humidity at which the monohydrate crystalline solid reversibly dehydrates (monohydrate crystalline solid isolated in Example 8) | temperature up to which the monohydrate form is stable and robust (monohydrate form, solid)
1 | COCCOc1cnc2ccn([C@H](C)c3nnc4c(F)cc(-c5cnn(C)c5)cn34)c(=O)c2c1 [Compound A, (R)-6-(1-(8-fluoro-6-(1-methyl-1H-pyrazol-4-yl)-[1,2,4]triazolo[4,3-a]pyridin-3-yl)ethyl)-3-(2-methoxyethoxy)-1,6-naphthyridin-5(6H)-one] | stable to air, moisture, and elevated temperature | < 11 % RH | –
2 | COCCOc1cnc2ccn([C@H](C)c3nnc4c(F)cc(-c5cnn(C)c5)cn34)c(=O)c2c1 [monohydrate form of Compound A] | – | – | up to 50 °C

— US9643984B2, “Method for the preparation of [1,2,4]-triazolo[4,3-a]pyridines” (AMGEN, INC., priority 2013, dated 2017)
